One data set concerns the target T1, CDK14/cyclin Y (PFTK1) (Homo sapiens, UniProt O94921).
T1 construct: purchased Reaction Biology Corp
In words: CDK enzymatic assay. The class given is biochemical. Particulars: Fig. 1A. The method, then:
(§1) CDK enzymatic assays were performed by Reaction Biology Corp. (Malvern, PA), using 10 µM ATP for determining MC180295 IC50 values for each CDK family member for which assays were available. Kinase enzymatic assays were also performed by Nanosyn (Santa Clara, CA), using microfluidic technology and MC180295 IC50 curves against 10 CDKs. Selectivity against CDK9 was confirmed for the enantiomers at Reaction Biology Corp. (Malvern, PA).

For another data set, the target named is T2, CDK16/cyclin Y (PCTAIRE) (Homo sapiens, UniProt Q00536).
T2 construct: purchased Reaction Biology Corp
In words: CDK enzymatic assay. The data set is classed as biochemical. The conditions noted are these: Fig. 1A. The method, then: as §1

For another data set, the target named is T3, CDK17/cyclin Y (PCTK2) (Homo sapiens, UniProt Q00537).
T3 construct: purchased Reaction Biology Corp
The data set is described as follows: CDK enzymatic assay. The data set is classed as biochemical. Particulars: Fig. 1A. The method, then: as §1

The target of the next data set is T4, CDK18/cyclin Y (PCTK3) (Homo sapiens, UniProt Q07002).
T4 construct: purchased Reaction Biology Corp
The data set is described as follows: CDK enzymatic assay. The conditions noted are these: Fig. 1A. The data set is classed as biochemical. As for the experimental part: as §1

Another data set deals with T5, CDK19/cyclin C (Homo sapiens, UniProt Q9BWU1).
T5 construct: purchased Reaction Biology Corp
In words: CDK enzymatic assay. The conditions noted are these: Fig. 1A. The class given is biochemical. As for the experimental part: as §1

For another data set, the target named is T6, CDK3/cyclin E2 (Homo sapiens, UniProt Q00526).
T6 construct: purchased Reaction Biology Corp
The data set is described as follows: CDK enzymatic assay. The data set is classed as biochemical. The conditions noted are these: Fig. 1A. As for the experimental part: as §1

The next data set has as its target T7, CDK6-Cyclin D3 (Homo sapiens, UniProt Q00534).
T7 construct: purchased Nanosyn
The data set is described as follows: CDK enzymatic assay. The data set is classed as biochemical. Particulars: Fig. 1A. The method, then:
as §1

The target of a further data set is T8, CDK8/cyclin C (Homo sapiens, UniProt P49336).
T8 construct: purchased Reaction Biology Corp
In words: CDK enzymatic assay. The class given is biochemical. The conditions noted are these: Fig. 1A. As for the experimental part:
as §1

A further data set concerns the target T9, CDK9/cyclin K (Homo sapiens, UniProt P50750).
T9 construct: purchased Reaction Biology Corp
In words: CDK enzymatic assay. The data set is classed as biochemical. Particulars: Fig. 1A. As for the experimental part:
as §1

In a further data set the target is CDK9/cyclin T1 (Homo sapiens, UniProt P50750). In words: CDK enzymatic assay. The data set is classed as biochemical. The conditions noted are these: Fig. 1A. The method, then: as §1
In a further data set the target is T10, CDK9/cyclin T2 (Homo sapiens, UniProt P50750).
T10 construct: purchased Reaction Biology Corp
In words: CDK enzymatic assay. The data set is classed as biochemical. Particulars: Fig. 1A. The method, then: as §1

A further data set has as its target CDK9/cyclin T (Homo sapiens, UniProt P50750). The data set is described as follows: CDK9/cyclin T inhibition, two independent assays. The data set is classed as biochemical. As for the experimental part:
as §1

In data set [1] the test system is 46 cell lines representing 6 different malignancies. The data set is described as follows: Growth inhibition in a panel of cancer cell lines. The data set is classed as cell-based. Particulars: 6 malignancies, read-out: median IC50. As for the experimental part: The live-cell assay for GFP reactivation in YB5 cells was done as previously described. Cells were treated with a single dose of drug 24 h after seeding at low density, and GFP fluorescence measured in a Millipore Guava flow cytometer (EMD, Millipore) instrument, or by imaging in a Cytation instrument (Agilent). Cancer cell lines (listed in Additional file 1: Fig. S1A) were obtained from ATCC or the Temple/Fox Chase Cellular Repository and cultured in the recommended medium. To measure growth inhibition, cells were seeded in 96-well plates at 40% confluency. Fresh medium was changed the next day and drugs were added directly. Drug-free fresh medium was changed on the fourth day. The cells were collected on day 5 by trypsin, suspended in medium, mixed with trypan blue (Thermo Fisher Scientific) (1:1 ratio), and counted using a LUNA II automated cell counter. Each sample was counted at least three times, and average numbers used for the analysis. Each treatment condition was performed in biological triplicates.

The nature of the next data set: Pharmacokinetics in mice. The class given is in vivo. Particulars: mouse, plasma. As for the experimental part:
Fig. 1 MC180295 enzymatic/growth inhibition and pharmacokinetics. A In vitro activity (IC50 values) of MC180295 against a panel of CDKs. B MC180295 IC50 values against 46 cell lines from 6 different cancer types. C Pharmacokinetic analyses after oral or IV administration of low-dose (1 mg/kg IV or 2.5 mg/kg oral) MC180295 to mice. D Pharmacokinetic analyses after IP administration of 10 mg/kg MC180295 to mice.
We next studied the pharmacokinetics (PK) of MC180295.

A short description of data set [2]: Drug toxicity: body weights and complete blood counts in tumor-bearing mice. The class given is in vivo. The conditions noted are these: MV4-11 model, NSG mice, Fig. S4D.
In the next data set the test system is MV4-11-luc cells. In words: MV4-11-luc AML model in NSG mice. The conditions noted are these: MV4-11-luc in NSG mice, 20 mg/kg i.p. q.o.d.; for survival: 20 mg/kg.
A further data set is described as follows: Kinetic solubility. Particulars: Dulbecco's PBS, aqueous buffer, kinetic from dmso stock; PBS (pH 7.4), Free Base. The data set is classed as physicochemical. As for the experimental part:
The kinetic solubility of test compounds was determined by adapting Millipore® application note protocol AN1730EN00. Liquid handling was performed using PerkinElmer® Verispan and MDT workstations. In triplicate, 4 µL of 10 mM test compounds in DMSO were added to 196 µL of buffer (Dulbecco’s’ PBS or water). The 200 µM compound solutions, in 2% DMSO, were incubated with gentle shaking for 90 min at RT before vacuum filtration in 96-well polypropylene collection plates, using a Millipore® filtration manifold. 160 µL of filtrate was transferred to a 96-well UV Star analysis plate (Greiner Bio-One® plate # 655,801) containing 40 µL acetonitrile. Standard curves were generated by adding 4 µL of 50 × of five concentrations of test compounds, in DMSO, to 40 µL acetonitrile in UV Star plates, followed by 156 µL buffer. Absorbances at […] were measured using a Molecular Devices® Spectramax Plus microplate reader with Softmax Pro v. 5.4.5 software. Absorbance readings were summed to generate the signal. Test sample concentrations were interpolated from linear standard curves using GraphPad® Prism v 5.04.

Data set [3] is described as follows: Liver microsome stability assay. The class given is in vitro ADME. The conditions noted are these: pooled liver microsomes, pH 7.4, Cynomologous Monkey liver microsomes; for half-life at 1 µM: cynomolgus monkey; for remaining at 1 h, 1 µM: without NADPH, 60 min, read-out: Stability minus NADPH % Remaining @ 60 min. (In general: Liver microsomes are vesicles of endoplasmic reticulum, rich in cytochrome P450 enzymes.)

Converted amounts (≈) assume the structure as drawn. “Also recorded” adds a separate entry of the source. Where two headings read alike, the source gives them in different places.

Sequence of CDK9/cyclin T (O60563 whole entry): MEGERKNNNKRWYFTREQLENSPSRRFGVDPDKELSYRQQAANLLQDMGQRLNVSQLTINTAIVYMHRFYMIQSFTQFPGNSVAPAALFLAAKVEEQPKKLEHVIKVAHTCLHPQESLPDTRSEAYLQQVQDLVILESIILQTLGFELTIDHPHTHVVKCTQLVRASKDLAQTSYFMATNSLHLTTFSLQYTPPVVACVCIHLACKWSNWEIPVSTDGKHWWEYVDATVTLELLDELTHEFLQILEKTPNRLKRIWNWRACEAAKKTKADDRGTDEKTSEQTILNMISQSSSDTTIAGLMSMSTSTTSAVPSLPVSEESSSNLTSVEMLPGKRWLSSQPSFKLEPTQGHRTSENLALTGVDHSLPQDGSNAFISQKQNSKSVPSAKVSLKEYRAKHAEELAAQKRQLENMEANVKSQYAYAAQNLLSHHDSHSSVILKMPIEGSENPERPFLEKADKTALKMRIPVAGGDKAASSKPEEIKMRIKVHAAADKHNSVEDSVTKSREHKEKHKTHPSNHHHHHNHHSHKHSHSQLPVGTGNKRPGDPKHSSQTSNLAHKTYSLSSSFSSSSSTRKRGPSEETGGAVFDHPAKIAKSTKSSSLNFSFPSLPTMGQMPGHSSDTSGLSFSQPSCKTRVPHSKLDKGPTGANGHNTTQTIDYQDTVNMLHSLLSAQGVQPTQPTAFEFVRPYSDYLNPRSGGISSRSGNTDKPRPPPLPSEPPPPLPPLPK
Sequence of CDK9/cyclin T (P50750 whole entry): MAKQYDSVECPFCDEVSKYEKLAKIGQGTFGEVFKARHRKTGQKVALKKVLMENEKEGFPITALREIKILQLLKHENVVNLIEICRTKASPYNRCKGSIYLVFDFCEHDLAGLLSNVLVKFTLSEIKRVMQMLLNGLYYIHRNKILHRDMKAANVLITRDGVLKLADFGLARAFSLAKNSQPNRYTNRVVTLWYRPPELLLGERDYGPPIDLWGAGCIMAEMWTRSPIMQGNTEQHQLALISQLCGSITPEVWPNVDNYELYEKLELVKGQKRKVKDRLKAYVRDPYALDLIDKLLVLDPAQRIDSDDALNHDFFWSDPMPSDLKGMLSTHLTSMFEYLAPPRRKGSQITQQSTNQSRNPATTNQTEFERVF
T6 sequence (Q00526 whole entry): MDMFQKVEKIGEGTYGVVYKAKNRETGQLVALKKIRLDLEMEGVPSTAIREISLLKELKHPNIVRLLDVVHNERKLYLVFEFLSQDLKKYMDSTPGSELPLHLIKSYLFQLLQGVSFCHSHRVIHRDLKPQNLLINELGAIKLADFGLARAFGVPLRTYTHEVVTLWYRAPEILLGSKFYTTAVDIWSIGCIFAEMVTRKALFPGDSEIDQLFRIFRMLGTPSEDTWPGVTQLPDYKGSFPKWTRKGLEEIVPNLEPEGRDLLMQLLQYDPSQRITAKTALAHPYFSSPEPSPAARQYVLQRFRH
T6 sequence (O96020 whole entry partner): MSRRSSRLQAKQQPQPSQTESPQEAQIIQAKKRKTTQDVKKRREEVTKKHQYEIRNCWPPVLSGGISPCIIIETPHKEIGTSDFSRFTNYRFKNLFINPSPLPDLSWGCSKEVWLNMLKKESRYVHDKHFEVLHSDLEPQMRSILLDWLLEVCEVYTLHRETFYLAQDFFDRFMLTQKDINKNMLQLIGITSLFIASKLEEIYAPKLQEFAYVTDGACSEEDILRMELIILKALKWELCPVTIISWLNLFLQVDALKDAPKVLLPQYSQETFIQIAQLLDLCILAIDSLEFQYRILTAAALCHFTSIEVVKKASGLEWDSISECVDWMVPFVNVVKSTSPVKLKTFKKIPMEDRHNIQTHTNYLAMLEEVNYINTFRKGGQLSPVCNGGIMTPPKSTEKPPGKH
T1 sequence (O94921 whole entry): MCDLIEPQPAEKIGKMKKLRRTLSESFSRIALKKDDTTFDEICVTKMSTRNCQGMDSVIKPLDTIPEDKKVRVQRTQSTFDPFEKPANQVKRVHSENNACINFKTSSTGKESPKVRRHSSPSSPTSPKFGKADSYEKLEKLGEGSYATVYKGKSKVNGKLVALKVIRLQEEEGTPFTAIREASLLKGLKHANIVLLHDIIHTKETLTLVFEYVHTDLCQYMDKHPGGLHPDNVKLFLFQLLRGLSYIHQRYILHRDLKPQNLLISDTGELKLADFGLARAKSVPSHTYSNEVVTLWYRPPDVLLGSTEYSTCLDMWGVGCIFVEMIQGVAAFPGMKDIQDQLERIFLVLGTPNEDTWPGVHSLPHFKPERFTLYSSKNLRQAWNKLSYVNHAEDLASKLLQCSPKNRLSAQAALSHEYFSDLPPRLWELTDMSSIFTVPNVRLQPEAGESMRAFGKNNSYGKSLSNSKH
T1 sequence (Q8ND76 whole entry partner): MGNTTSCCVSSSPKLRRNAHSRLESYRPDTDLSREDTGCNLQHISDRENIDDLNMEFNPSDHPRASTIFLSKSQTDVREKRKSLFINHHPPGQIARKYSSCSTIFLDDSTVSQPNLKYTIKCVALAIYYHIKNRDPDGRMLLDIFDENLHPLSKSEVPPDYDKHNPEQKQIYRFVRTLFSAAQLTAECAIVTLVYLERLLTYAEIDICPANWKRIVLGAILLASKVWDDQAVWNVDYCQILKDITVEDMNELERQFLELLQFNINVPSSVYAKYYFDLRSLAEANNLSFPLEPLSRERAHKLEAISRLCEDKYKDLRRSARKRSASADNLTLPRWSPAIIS
T3 sequence (Q00537 whole entry): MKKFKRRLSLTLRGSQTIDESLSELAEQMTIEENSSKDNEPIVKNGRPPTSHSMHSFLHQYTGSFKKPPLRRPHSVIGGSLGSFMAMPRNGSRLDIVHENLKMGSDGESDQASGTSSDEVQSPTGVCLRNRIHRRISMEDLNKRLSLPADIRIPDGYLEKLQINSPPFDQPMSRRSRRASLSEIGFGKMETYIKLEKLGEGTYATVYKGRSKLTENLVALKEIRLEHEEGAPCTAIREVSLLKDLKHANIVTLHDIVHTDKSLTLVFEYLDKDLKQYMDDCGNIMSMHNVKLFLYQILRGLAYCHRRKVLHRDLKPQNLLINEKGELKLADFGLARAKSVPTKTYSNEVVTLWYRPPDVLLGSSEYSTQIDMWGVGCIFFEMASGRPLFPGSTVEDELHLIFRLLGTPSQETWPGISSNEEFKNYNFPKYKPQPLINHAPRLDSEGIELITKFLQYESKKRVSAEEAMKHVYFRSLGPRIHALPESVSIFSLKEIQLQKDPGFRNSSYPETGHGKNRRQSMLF
T3 sequence (Q8ND76 whole entry partner): as the sequence (Q8ND76 whole entry partner) above
T5 sequence (Q9BWU1 whole entry): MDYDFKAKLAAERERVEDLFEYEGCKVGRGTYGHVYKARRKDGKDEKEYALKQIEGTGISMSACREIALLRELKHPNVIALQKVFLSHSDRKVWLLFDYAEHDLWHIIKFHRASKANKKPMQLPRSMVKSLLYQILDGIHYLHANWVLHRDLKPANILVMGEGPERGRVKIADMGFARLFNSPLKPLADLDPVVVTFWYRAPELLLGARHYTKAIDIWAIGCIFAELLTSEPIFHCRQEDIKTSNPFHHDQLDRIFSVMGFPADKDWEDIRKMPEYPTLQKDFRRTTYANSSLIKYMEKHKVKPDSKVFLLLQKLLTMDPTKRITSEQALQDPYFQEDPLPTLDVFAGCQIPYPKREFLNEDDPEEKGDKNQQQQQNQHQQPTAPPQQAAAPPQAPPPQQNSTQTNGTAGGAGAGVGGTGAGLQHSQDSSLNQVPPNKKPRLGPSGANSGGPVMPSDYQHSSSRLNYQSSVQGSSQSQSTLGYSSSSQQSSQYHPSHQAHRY
T5 sequence (P24863 whole entry partner): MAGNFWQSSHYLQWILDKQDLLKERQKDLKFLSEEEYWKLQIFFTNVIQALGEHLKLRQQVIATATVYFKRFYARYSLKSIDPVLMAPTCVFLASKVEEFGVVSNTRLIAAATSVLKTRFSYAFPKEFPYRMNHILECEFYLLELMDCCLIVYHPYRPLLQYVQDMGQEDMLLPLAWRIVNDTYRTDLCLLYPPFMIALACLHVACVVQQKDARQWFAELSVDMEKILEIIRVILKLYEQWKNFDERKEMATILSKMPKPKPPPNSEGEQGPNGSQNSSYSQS
T2 sequence (Q00536 whole entry): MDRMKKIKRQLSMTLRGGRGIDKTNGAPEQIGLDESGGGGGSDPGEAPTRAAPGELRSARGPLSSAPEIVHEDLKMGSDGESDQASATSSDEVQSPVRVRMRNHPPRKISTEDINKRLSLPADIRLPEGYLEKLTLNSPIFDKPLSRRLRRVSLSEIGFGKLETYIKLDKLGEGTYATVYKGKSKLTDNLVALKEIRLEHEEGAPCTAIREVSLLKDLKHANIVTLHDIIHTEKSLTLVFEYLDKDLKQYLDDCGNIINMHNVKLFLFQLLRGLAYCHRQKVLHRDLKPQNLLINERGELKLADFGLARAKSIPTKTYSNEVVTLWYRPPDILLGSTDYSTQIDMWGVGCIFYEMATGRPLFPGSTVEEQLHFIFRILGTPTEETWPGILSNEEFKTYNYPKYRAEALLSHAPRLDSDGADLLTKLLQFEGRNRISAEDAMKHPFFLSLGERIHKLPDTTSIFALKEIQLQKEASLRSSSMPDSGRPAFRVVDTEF
T2 sequence (Q8ND76 whole entry partner): as the sequence (Q8ND76 whole entry partner) above
Sequence of CDK9/cyclin T1 (P50750 whole entry): as the sequence (P50750 whole entry) above
Sequence of CDK9/cyclin T1 (O60563 whole entry partner): as the sequence (O60563 whole entry) above
Method for MV4-11-luc cells: E NSG mice were inoculated (i.p.) with 5 × 10^5 MV4-11-luc cells. Four days later, when substantial tumor burden was evident by bioluminescence imaging, MC180379, MC180380, or vehicle were administered (i.p.) q.o.d at 20 mg/kg. Luciferase expression was quantified and calculated. F Mouse survival in days. […] Significances were calculated using log-rank (Mantel-Cox) or Student’s t tests.
0.5 mg/kg DAC was administered (i.p.) daily. […] B Mouse survival in days. 20 mg/kg MC180295 was administered (i.p.) q.o.d. 0.5 mg/kg DAC was administered (i.p.) daily. C NSG mice were inoculated (i.p.) with 5 × 10^5 MV4-11-luc cells. Four days later, when substantial tumor burden was evident by bioluminescence imaging, MC180295 (20 mg/kg) or vehicle were administered (i.p.) every other day. 0.5 mg/kg DAC was administered (i.p.) daily. Luciferase expression was quantified and calculated. […] 0.5 mg/kg DAC was administered (i.p.) daily. Mouse survival shown in days. Significances were calculated using log-rank (Mantel-Cox) or Student's t tests. Data are shown as means ± SEMs. ***p < 0.001
Both female and male NOD.Cg-Prkdcscid Il2rgtm1Wjl/SzJ (NSG) mice were used for the experiments. Age- and gender-matched mice were randomly assigned to each group. 8–10-week-old NSG mice were tail vein-injected with 5 × 10^5 MV4-11-luc cells. […] Natural death or accumulation of ascites fluid were used as endpoints.

With `Nc1nc(N[C@H]2C[C@@H]3CC[C@H]2C3)sc1C(=O)c1ccccc1[N+](=O)[O-]` (relative stereo) [MC180295], the IC50 worked out at 528 nM against CDK14/cyclin Y (PFTK1); 1180 nM against CDK16/cyclin Y (PCTAIRE); 438 nM on CDK17/cyclin Y (PCTK2); 1060 nM against CDK18/cyclin Y (PCTK3); 814 nM against CDK19/cyclin C; 401 nM against CDK3/cyclin E2. In addition, the IC50 was 712 nM against CDK6-Cyclin D3; 501 nM against CDK8/cyclin C; 49 nM against CDK9/cyclin K; 12 nM against CDK9/cyclin T1; 3 nM against CDK9/cyclin T2; 3 to 12 nM on CDK9/cyclin T (based on two independent assays, read-out: IC50 toward CDK9/cyclin T). For the same molecule, the IC50 in [1] was 171 nM. Also, the “selectivity for CDK9, compared to other CDKs” value at CDK9/cyclin T is listed as 20 fold. The same molecule showed an AUC(0-t) in the data set “Pharmacokinetics in mice” (IP 10 mg/kg) of 1370 ng·h/mL. Further, the Cmax in the data set “Pharmacokinetics in mice” (IP 10 mg/kg) came to 1070 ng/mL; in “Pharmacokinetics in mice” (IV - 1mg/kg), 210 ng/mL; in “Pharmacokinetics in mice” (Oral - 2.5mg/kg), 96 ng/mL. For the same molecule, the Tmax in the data set “Pharmacokinetics in mice” (IP 10 mg/kg) was 10.2 min; in “Pharmacokinetics in mice” (Oral - 2.5mg/kg), 30 min. Further, the AUC(0-inf) in “Pharmacokinetics in mice” (IP 10 mg/kg, read-out: AUC 0-inf_obs) stood at 3840 ng·h/mL. The results for the area under the curve (AUC) in “Pharmacokinetics in mice” (IV - 1mg/kg) and in the data set “Pharmacokinetics in mice” (Oral - 2.5mg/kg) were 110 ng·h/mL and 71 ng·h/mL, respectively. The molecule further gave a clearance in the data set “Pharmacokinetics in mice” (IV - 1mg/kg) of 3.67 mL/min. The Vd in “Pharmacokinetics in mice” (IV - 1mg/kg, read-out: Vss) was 0.19 L. Besides, the bioavailability in “Pharmacokinetics in mice” (Oral - 2.5mg/kg vs IV - 1mg/kg, as fraction) is 26%; in “Pharmacokinetics in mice” (oral dose of 2.5 mg/kg), 26%. Also, the half-life was 947 min in the data set “Pharmacokinetics in mice” (ip, 10 mg/kg, IP 10 mg/kg, read-out: T1/2 (converted)); 948 min in “Pharmacokinetics in mice” (ip, 10 mg/kg, IP at 10 mg/kg, read-out: half-life (converted)); 51.6 min in the data set “Pharmacokinetics in mice” (iv, 1 mg/kg, IV - 1mg/kg, read-out: T1/2 (converted)); 51.6 min in the data set “Pharmacokinetics in mice” (iv, 1 mg/kg, IV dose of 1 mg/kg, read-out: half-life (converted)); 79.2 min in “Pharmacokinetics in mice” (po, 2.5 mg/kg, Oral - 2.5mg/kg, read-out: T1/2 (converted)); 78 min in the data set “Pharmacokinetics in mice” (po, 2.5 mg/kg, oral dose of 2.5 mg/kg, read-out: half-life (converted)). The body weights result in data set [2] is “did not affect NSG mouse body weights”. Moreover, the survival entry with MV4-11-luc cells is recorded as “significantly extended survival”.
The molecule `Nc1nc(N[C@@H]2C[C@H]3CC[C@@H]2C3)sc1C(=O)c1ccccc1[N+](=O)[O-]` [MC180379] gave a solubility at 90 min in the data set “Kinetic solubility” of 53.5 µM (≈ 19.2 µg/mL). Moreover, in data set [3], the half-life at 1 µM worked out at 0.8 min and the share remaining at 1 h, 1 µM stood at 73%.
`Nc1nc(N[C@H]2C[C@@H]3CC[C@H]2C3)sc1C(=O)c1ccccc1[N+](=O)[O-]` [MC180380]: in the data set “Kinetic solubility”, the solubility at 90 min came out at 52.6 µM (≈ 18.9 µg/mL). In [3], the half-life at 1 µM amounted to 1.5 min and the amount remaining at 1 h, 1 µM came to 51%. Moreover, in the data set with MV4-11-luc cells, the “tumor burden, as measured by luciferase intensities” value is listed as “lower” and the survival result is “significantly extended survival; also recorded: better survival”.

A word on the AUC(0-t): it is the area under the concentration-time curve up to a stated or last time point. Broadly, the Cmax is the maximum level reached in the sampled fluid or tissue. The Tmax is the time at which the peak concentration occurs. Broadly, the AUC is the area under the concentration-time curve, a measure of exposure. What is called clearance is the rate of elimination divided by the concentration. By bioavailability is commonly meant dose-corrected exposure relative to a reference, in per cent. As usually defined, the solubility is how much of the substance goes into solution per volume. The term amount remaining denotes the share of the starting amount still present when the sample was taken.

(Values after PMC10765884, “MC180295 is a highly potent and selective CDK9 inhibitor with preclinical in vitro and in vivo efficacy in cancer” (Clinical Epigenetics, 2024).)
